Data from patent US8222216B2, “Mesenchymal cell proliferation promoter and skeletal system biomaterial” (Osaka University, priority 2006, dated 2012).
No end group written: not given here.

Experiments:
[1] = tested on: human marrow-derived mesenchymal stem cells; experiment: Adhesion of human marrow-derived mesenchymal stem cells to peptide-coated plate (crystal violet); assay type: cell-based; conditions: plate coated with 0.01 to 100 μg/ml peptide, 30 minutes incubation, P<0.01, n=8, FIG. 9
Description: (§1) An effect that is exerted on adhesive capacity of the mesenchymal cells by the SVVYGLR peptide (SEQ ID NO: 1) was analyzed. The mesenchymal cells used in this example were: human marrow-derived mesenchymal stem cells (human mesenchymal stem cell for study: provided by RIKEN CELL BANK); human gingival fibroblasts (isolated from human gingival and cultured according to a publicly known method); and human periodontal ligament cells (normal human periodontal ligament fibroblast cells: purchased from Sanko Junyaku Co., Ltd).
(§2) A coating plate was produced through the steps of: adding the synthesized SVVYGLR peptide (SEQ ID NO: 1) (0 to 100 μg/ml) to a 96-well microplate for floating cells (ASAHI TECHNO GLASS CORPORATION) for culturing these cells, allowing the microplate to stand for 2 hours at 37 °C, and rinsing the microplate twice in phosphate buffer (PBS: Sigma Pharmaceuticals Ltd). The SVVYGLR peptide (SEQ ID NO: 1) was synthesized with the method described in example 1. […]
(§3) The cells attached to the coating plate were stained with 0.1% crystal violet (Wako Chemicals USA. Inc) […], and then rinsed three times with PBS. Twenty-percent TritonX (Sigma Pharmaceuticals Ltd) was added to each well, and 48 hours later, optical density of each well at a wavelength of […] was measured (reference wavelength […]) by using an optical density spectrometer (BioRad model 680).

[2] = tested on: mesenchymal cells isolated from thigh bone marrow; experiment: Pellet culture of bone marrow mesenchymal cells (three-dimensional proliferation); assay type: cell-based, Sprague-Dawley rat; conditions: 100 ng/ml peptide
Description: A pellet culture experiment was conducted to analyze how the SVVYGLR peptide (SEQ ID NO: 1) affected the mesenchymal cells when the mesenchymal cells clump together three-dimensionally over a long time.
The mesenchymal cells were isolated from thigh bone marrow of a Sprague-Dawley rat (8-week old male), and cultured in a pellet culture with initial count of 50,000 cells based on the method of Tsutsumi S et al. (Biochem Biophys Res Commun. 288:413-419:2001). The incubation was carried out with a culture medium prepared in such a manner that dexamethasone (100 nM, Sigma-Aldrich), ascorbic acid (50 μg/ml, Sigma-Aldrich), ITS+ premix (100 times diluted, BD Biosciences), and recombinant human transforming growth factor-β1 (10 ng/ml, PeproTech EC) were added to α-MEM (high glucose: Nacalai Tesque, Inc). The SVVYGLR peptide (SEQ ID NO: 1) (100 ng/ml) was added to the culture medium and the pellet was incubated for 26 days. The culture medium was replaced every other day.
The pellet was collected and fixed in phosphate buffered 10% formalin solution for 3 hours at 4° C. After the pellet was washed with PBS (pH7.4), the pellet was soaked in the PBS of a culture plate and photographed under a phase contrast microscope. Planar dimensions of the pellet on a photographed image were measured by using an image analysis software ImageJ ver.1.33u (National Institute of health, USA).

[3] = tested on: dental pulp cells; experiment: Proliferation of dental pulp cells (WST-1 cell counting); assay type: cell-based, Sprague-Dawley rat; conditions: 10 to 100 ng/ml peptide, day-10 or later, P<0.01, n=6, FIG. 2
Description: (§4) An in vitro experiment was conducted to analyze how the SVVYGLR peptide (SEQ ID NO: 1) affected a proliferating ability of mesenchymal cells present in intercellular substances of bone marrow and dental pulp.
(§5) Purchased human bone marrow-derived mesenchymal stem cells (Cambrex BioScience Inc.) were used as the mesenchymal cells of the intercellular substance of bone marrow. Further, “dental pulp cells”, the mesenchymal cells that constitute a main component of dental pulp tissue, were isolated from a lower incisor of a Sprague-Dawley rat (8-week old male) and cultured based on the method of Nakamura H et al. (J Dent Res. 84: 515-520: 2005), and used for the experiment.
(§6) These cells were seeded into a 96-well cell culture plate at a rate of 5,000 cells/well, and the number of cells under the presence of the SVVYGLR peptide (SEQ ID NO: 1) (0 to 100 ng/ml) was measured by using WST-1 Cell Counting Kit (DOJINDO LABORATORIES). A culture medium was replaced every other day.

[4] = tested on: human bone marrow-derived mesenchymal stem cells; experiment: Proliferation of human marrow-derived mesenchymal stem cells (WST-1 cell counting); assay type: cell-based; conditions: 10 to 100 ng/ml peptide, day-4 or later, P<0.01, n=6, FIG. 1
Description: as §4, §5, §6

[5] = tested on: human periodontal ligament cells; experiment: Adhesion of human periodontal ligament cells to peptide-coated plate (crystal violet); assay type: cell-based; conditions: plate coated with 0.01 to 100 μg/ml peptide, 30 minutes incubation, P<0.01, n=8, FIG. 11
Description: as §1, §2, §3

[6] = tested on: human gingival fibroblasts; experiment: Adhesion of human gingival fibroblasts to peptide-coated plate (crystal violet); assay type: cell-based; conditions: plate coated with 0.01 to 100 μg/ml peptide, 30 minutes incubation, P<0.01, n=8, FIG. 10
Description: as §1, §2, §3

Substance: SVVYGLR [SVVYGLR peptide, osteopontin-derived peptide of seven amino acids, synthesized by Fmoc solid-phase method]
- number of human marrow-derived mesenchymal stem cells adhered to coated plate compared to control [1]: significantly increased density-dependently
- toluidine blue staining of pellet segments (extracellular matrix, acid mucopolysaccharide) ([2]; 26 days pellet culture): no toluidine blue staining was observed
- pellet size (planar dimensions) relative to control group ([2]; incubated 26 days, three pellets per group, FIG. 4): 1.5 times
- number of dental pulp cells compared to control group [3]: significantly increased
- number of human marrow-derived mesenchymal stem cells compared to control group [4]: significantly increased
- number of human periodontal ligament cells adhered to coated plate compared to control [5]: significantly increased density-dependently
- number of human gingival fibroblasts adhered to coated plate compared to control [6]: significantly increased density-dependently
